Our source for the EC50 values is BindingDB's records for doi:10.1021/jm2013826 (2012).

Each structure is given as a SMILES string. pEC50: −log10 of the molar value.

Chain of Integrin alpha-IIb/beta-3 (P05106 27-788 limits assumed): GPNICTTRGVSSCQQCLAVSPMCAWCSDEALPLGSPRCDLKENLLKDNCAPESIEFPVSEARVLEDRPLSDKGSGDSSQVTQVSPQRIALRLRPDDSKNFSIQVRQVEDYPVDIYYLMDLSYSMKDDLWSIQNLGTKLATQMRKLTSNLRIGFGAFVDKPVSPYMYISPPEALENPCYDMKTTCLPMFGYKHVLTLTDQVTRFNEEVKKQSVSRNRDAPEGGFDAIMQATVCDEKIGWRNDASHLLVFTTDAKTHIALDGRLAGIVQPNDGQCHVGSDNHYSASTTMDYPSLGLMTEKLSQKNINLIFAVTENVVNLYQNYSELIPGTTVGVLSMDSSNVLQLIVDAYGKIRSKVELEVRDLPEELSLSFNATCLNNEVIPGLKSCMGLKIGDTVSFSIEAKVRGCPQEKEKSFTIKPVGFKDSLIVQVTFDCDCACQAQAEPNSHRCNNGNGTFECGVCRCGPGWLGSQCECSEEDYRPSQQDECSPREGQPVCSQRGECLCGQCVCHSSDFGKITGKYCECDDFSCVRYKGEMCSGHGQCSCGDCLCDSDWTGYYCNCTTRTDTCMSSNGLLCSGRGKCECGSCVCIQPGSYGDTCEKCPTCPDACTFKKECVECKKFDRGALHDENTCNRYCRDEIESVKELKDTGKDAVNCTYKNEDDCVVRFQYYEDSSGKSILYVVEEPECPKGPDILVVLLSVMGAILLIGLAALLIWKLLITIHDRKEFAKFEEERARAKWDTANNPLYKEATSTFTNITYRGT
Chain of Integrin alpha-IIb/beta-3 (P08514 32-887 limits assumed): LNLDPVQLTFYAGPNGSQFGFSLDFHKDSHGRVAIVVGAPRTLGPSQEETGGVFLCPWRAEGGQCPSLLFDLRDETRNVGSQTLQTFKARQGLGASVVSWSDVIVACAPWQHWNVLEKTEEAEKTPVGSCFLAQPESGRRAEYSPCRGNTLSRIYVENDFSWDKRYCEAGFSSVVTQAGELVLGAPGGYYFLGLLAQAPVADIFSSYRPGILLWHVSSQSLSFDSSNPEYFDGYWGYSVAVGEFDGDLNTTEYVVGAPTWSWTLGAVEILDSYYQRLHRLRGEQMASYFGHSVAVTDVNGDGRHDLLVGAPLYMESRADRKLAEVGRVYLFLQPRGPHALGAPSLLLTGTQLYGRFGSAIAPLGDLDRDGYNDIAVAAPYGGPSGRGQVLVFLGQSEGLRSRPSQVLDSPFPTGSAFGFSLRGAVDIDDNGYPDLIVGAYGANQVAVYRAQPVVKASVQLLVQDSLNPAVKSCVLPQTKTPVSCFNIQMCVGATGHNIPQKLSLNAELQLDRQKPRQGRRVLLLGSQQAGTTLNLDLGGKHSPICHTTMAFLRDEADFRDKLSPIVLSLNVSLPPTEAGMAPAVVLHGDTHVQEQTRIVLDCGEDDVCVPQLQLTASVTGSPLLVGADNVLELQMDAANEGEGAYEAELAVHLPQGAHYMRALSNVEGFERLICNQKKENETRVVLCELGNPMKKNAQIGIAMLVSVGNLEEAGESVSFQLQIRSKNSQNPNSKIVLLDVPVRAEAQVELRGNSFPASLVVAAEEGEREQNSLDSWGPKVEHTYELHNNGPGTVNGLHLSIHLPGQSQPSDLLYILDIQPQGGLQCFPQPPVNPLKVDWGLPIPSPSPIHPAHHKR
Chain of Integrin alpha-IIb/beta-3 (P08514 891-1039 limits assumed): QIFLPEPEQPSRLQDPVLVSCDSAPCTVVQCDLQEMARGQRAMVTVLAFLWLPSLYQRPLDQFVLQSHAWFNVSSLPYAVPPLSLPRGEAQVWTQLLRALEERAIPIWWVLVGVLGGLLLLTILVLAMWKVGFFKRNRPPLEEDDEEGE

This assay concerns the target Integrin alpha-IIb/beta-3 (Homo sapiens, UniProt P08514+P05106). Nature of the assay: Inhibition of integrin alpha2bbeta3-mediated platelet aggregation in human TRAP-6-activated whole blood for 6 mins by impedence-based aggregometry.
For orientation: pEC50 means the EC50 on a negative log10 scale, so that one unit is a factor of ten. Read a low pEC50 as a high EC50. In turn, `COP(=O)(O)[C@H](CNC(=O)c1ccc(OCCC2CCNCC2)cc1)NS(=O)(=O)c1ccccc1` showed a pEC50 of 7.39.

In turn, `O=C(NC[C@H](NS(=O)(=O)c1ccccc1)P(=O)(O)O)c1ccc(OCCC2CCNCC2)cc1` had a pEC50 of 6.56.

`O=C(NC[C@H](NS(=O)(=O)c1ccccc1)[PH](=O)O)c1ccc(OCCC2CCNCC2)cc1`: the negative-log EC50 (pEC50) is 8.11.
